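GI50 = concentration required for 50% inhibition of growth. TGI: total growth inhibition.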
Key:
Test in all cases: NCI anticancer screen, dose series, 384-well format
NCI-H23 lung = tested on: NCI-H23 lung
OVCAR-3 ovarian = tested on: OVCAR-3 ovarian
A498 renal = tested on: A498 renal
MDA-MB-231 breast = tested on: MDA-MB-231 breast
TK-10 renal = tested on: TK-10 renal
NCI/ADR-RES ovarian = tested on: NCI/ADR-RES ovarian
SR leukemia = tested on: SR leukemia
HOP-62 NSCLC = tested on: HOP-62 NSCLC
SNB-19 CNS = tested on: SNB-19 CNS
HOP-92 NSCLC = tested on: HOP-92 NSCLC
SK-MEL-28 melanoma = tested on: SK-MEL-28 melanoma
OVCAR-4 ovarian = tested on: OVCAR-4 ovarian
MDA-MB-435 melanoma = tested on: MDA-MB-435 melanoma
RPMI-8226 leukemia = tested on: RPMI-8226 leukemia
ACHN renal = tested on: ACHN renal
BT-549 breast = tested on: BT-549 breast
SK-OV-3 ovarian = tested on: SK-OV-3 ovarian
CAKI-1 renal = tested on: CAKI-1 renal
MOLT-4 leukemia = tested on: MOLT-4 leukemia
DU-145 prostate = tested on: DU-145 prostate
M14 melanoma = tested on: M14 melanoma
MDA-MB-468 breast = tested on: MDA-MB-468 breast
SF-268 CNS = tested on: SF-268 CNS
MCF7 breast = tested on: MCF7 breast
NCI-H322M lung = tested on: NCI-H322M lung
OVCAR-8 ovarian = tested on: OVCAR-8 ovarian
LOX IMVI melanoma = tested on: LOX IMVI melanoma
HCC-2998 colon = tested on: HCC-2998 colon
OVCAR-5 ovarian = tested on: OVCAR-5 ovarian
MALME-3M melanoma = tested on: MALME-3M melanoma
HCT-15 colon = tested on: HCT-15 colon
NCI-H460 NSCLC = tested on: NCI-H460 NSCLC
KM12 colon = tested on: KM12 colon
SK-MEL-5 melanoma = tested on: SK-MEL-5 melanoma
HT29 colon = tested on: HT29 colon
SN12C renal = tested on: SN12C renal
U251 glioblastoma = tested on: U251 glioblastoma
NCI-H522 lung = tested on: NCI-H522 lung
NCI-H226 lung = tested on: NCI-H226 lung
UACC-62 melanoma = tested on: UACC-62 melanoma
SF-295 CNS = tested on: SF-295 CNS
IGROV1 ovarian = tested on: IGROV1 ovarian
T-47D breast = tested on: T-47D breast
SNB-75 CNS = tested on: SNB-75 CNS
SF-539 CNS = tested on: SF-539 CNS
A549 NSCLC = tested on: A549 NSCLC
COLO 205 colon = tested on: COLO 205 colon
RXF 393 renal = tested on: RXF 393 renal
HCT-116 colon = tested on: HCT-116 colon
EKVX NSCLC = tested on: EKVX NSCLC
UACC-257 melanoma = tested on: UACC-257 melanoma
HS 578T breast = tested on: HS 578T breast
PC-3 prostate = tested on: PC-3 prostate

For COc1ccc(COc2cc3oc(=O)c4cc(C(C)O)ccc4c3cc2OC)cc1 (stereo unspecified), the GI50 (NCI-H23 lung) was 11.9 µM, the TGI (NCI-H23 lung) was 36.9 µM and the GI50 (OVCAR-3 ovarian) was 10.1 µM. For the same compound, the TGI (OVCAR-3 ovarian) was 24.7 µM, the GI50 (A498 renal) was 12.2 µM and the TGI (A498 renal) was 35 µM. For the same compound, the GI50 (MDA-MB-231 breast) was 20.3 µM, the TGI (MDA-MB-231 breast) was 77.5 µM and the GI50 (TK-10 renal) was 10.5 µM. The TGI (TK-10 renal) was 25.6 µM, the GI50 (NCI/ADR-RES ovarian) was 4.8 µM and the TGI (NCI/ADR-RES ovarian) was 59.4 µM. It also gave a GI50 (SR leukemia) of 1.87 µM, a TGI (SR leukemia) of 5.69 µM and a GI50 (HOP-62 NSCLC) of 8.11 µM. For the same compound, the TGI (HOP-62 NSCLC) was 24.5 µM, the GI50 (SNB-19 CNS) was 7.73 µM and the TGI (SNB-19 CNS) was 20.8 µM. For the same compound, the GI50 (HOP-92 NSCLC) was 11.3 µM, the TGI (HOP-92 NSCLC) was 30.1 µM and the GI50 (SK-MEL-28 melanoma) was 55.3 µM. For the same compound, the TGI (SK-MEL-28 melanoma) was > 100 µM, the GI50 (OVCAR-4 ovarian) was 3.41 µM and the TGI (OVCAR-4 ovarian) was 12.3 µM. For the same compound, the GI50 (MDA-MB-435 melanoma) was 2.09 µM, the TGI (MDA-MB-435 melanoma) was 4.71 µM and the GI50 (RPMI-8226 leukemia) was 16.3 µM. The TGI (RPMI-8226 leukemia) was > 100 µM, the GI50 (ACHN renal) was 23 µM and the TGI (ACHN renal) was 61.2 µM. The GI50 (BT-549 breast) was 6.81 µM, the TGI (BT-549 breast) was 20.5 µM and the GI50 (SK-OV-3 ovarian) was 3.89 µM. For the same compound, the TGI (SK-OV-3 ovarian) was 21.2 µM, the GI50 (CAKI-1 renal) was 18.6 µM and the TGI (CAKI-1 renal) was 60.8 µM. The GI50 (MOLT-4 leukemia) was 5.6 µM, the TGI (MOLT-4 leukemia) was > 100 µM and the GI50 (DU-145 prostate) was 41.6 µM. For the same compound, the TGI (DU-145 prostate) was > 100 µM, the GI50 (M14 melanoma) was 8.95 µM and the TGI (M14 melanoma) was > 100 µM. It also gave a GI50 (MDA-MB-468 breast) of 4.9 µM, a TGI (MDA-MB-468 breast) of 25.2 µM and a GI50 (SF-268 CNS) of 4.6 µM. It also gave a TGI (SF-268 CNS) of 16 µM, a GI50 (MCF7 breast) of 5.21 µM and a TGI (MCF7 breast) of 22.2 µM. The GI50 (NCI-H322M lung) was 20.4 µM, the TGI (NCI-H322M lung) was 71.4 µM and the GI50 (OVCAR-8 ovarian) was 12.6 µM. The TGI (OVCAR-8 ovarian) was 54.2 µM, the GI50 (LOX IMVI melanoma) was 17 µM and the TGI (LOX IMVI melanoma) was > 100 µM. For the same compound, the GI50 (HCC-2998 colon) was 14.6 µM, the TGI (HCC-2998 colon) was > 100 µM and the GI50 (OVCAR-5 ovarian) was 61.2 µM. The TGI (OVCAR-5 ovarian) was > 100 µM, the GI50 (MALME-3M melanoma) was 15.8 µM and the TGI (MALME-3M melanoma) was > 100 µM. The GI50 (HCT-15 colon) was 3.57 µM, the TGI (HCT-15 colon) was > 100 µM and the GI50 (NCI-H460 NSCLC) was 5.65 µM. For the same compound, the TGI (NCI-H460 NSCLC) was 85.9 µM, the GI50 (KM12 colon) was 8.27 µM and the TGI (KM12 colon) was > 100 µM. The GI50 (SK-MEL-5 melanoma) was 3.62 µM, the TGI (SK-MEL-5 melanoma) was 12.5 µM and the GI50 (HT29 colon) was 6.91 µM. For the same compound, the TGI (HT29 colon) was > 100 µM, the GI50 (SN12C renal) was 20 µM and the TGI (SN12C renal) was 90.1 µM. For the same compound, the GI50 (U251 glioblastoma) was 7.43 µM, the TGI (U251 glioblastoma) was 24.8 µM and the GI50 (NCI-H522 lung) was 5.04 µM. It also gave a TGI (NCI-H522 lung) of 16.4 µM, a GI50 (NCI-H226 lung) of 15.2 µM and a TGI (NCI-H226 lung) of 33.8 µM. For the same compound, the GI50 (UACC-62 melanoma) was 8.49 µM, the TGI (UACC-62 melanoma) was 22.8 µM and the GI50 (SF-295 CNS) was 10.4 µM. For the same compound, the TGI (SF-295 CNS) was 30.6 µM, the GI50 (IGROV1 ovarian) was 15.3 µM and the TGI (IGROV1 ovarian) was 35.7 µM. The GI50 (T-47D breast) was 10.6 µM, the TGI (T-47D breast) was 61.5 µM and the GI50 (SNB-75 CNS) was 6.65 µM. For the same compound, the TGI (SNB-75 CNS) was 20.3 µM, the GI50 (SF-539 CNS) was 7.79 µM and the TGI (SF-539 CNS) was 20.6 µM. The GI50 (A549 NSCLC) was 18.6 µM, the TGI (A549 NSCLC) was > 100 µM and the GI50 (COLO 205 colon) was > 100 µM. For the same compound, the TGI (COLO 205 colon) was > 100 µM, the GI50 (RXF 393 renal) was 5.55 µM and the TGI (RXF 393 renal) was 19.5 µM. The GI50 (HCT-116 colon) was 9.41 µM, the TGI (HCT-116 colon) was > 100 µM and the GI50 (EKVX NSCLC) was 12.2 µM. For the same compound, the TGI (EKVX NSCLC) was 43.2 µM, the GI50 (UACC-257 melanoma) was 24.3 µM and the TGI (UACC-257 melanoma) was 94.6 µM. It also gave a GI50 (HS 578T breast) of 5.56 µM, a TGI (HS 578T breast) of 19.3 µM and a GI50 (PC-3 prostate) of 24.9 µM. It also gave a TGI (PC-3 prostate) of 93.1 µM.

— PubChem BioAssay (NCI)
